Data taken from publication PMC13198257, “An aerosolized dual-action autotaxin inhibitor-PPARγ agonist for the treatment of pulmonary fibrosis” (Cell Reports Medicine, 2026).
pEC50, pIC50: −log10 of the molar value. Entries after “also recorded” stand apart in the source; their conditions may differ.

What was measured:
ATX [1] = molecular target: T1, ATX (Homo sapiens, UniProt Q13822); assay: Amplex Red assay: ATX inhibitory activity in vitro; type: biochemical; conditions: for pIC50: Amplex Red assay; for pIC50 / Inhibition of ATX enzymatic activity: in vitro; for % inhibition of ATX: at 100 μΜ, Table S1; for ATX activity, fold lower than that of TGZ: ratio of IC50
T1 construct: purchased Sino Biological 11308-H07H
Description: (§1) ATX inhibitory activity in vitro of examined compounds was assessed with the Amplex Red assay,[32]^,[35]^,[36] as recently published in detail.[37] The assay was done in Amplex Red Assay buffer (Tris 50 mM, CaCl2 5 mM, pH 8). Briefly, 50 μL of increasing concentrations of each compound were placed in separate wells of a black 96-well plate. […] 50 μL of the LPC-containing assay buffer (200 μM) were added to the wells and incubated for 30 min at 37°C to allow the enzyme to initially interact with its substrate. 50 μL of the detection mix (Amplex Red 200 μM, choline oxidase 0.4 U/mL, horseradish peroxidase 4 U/mL) were added to the plate wells. Fluorescence was measured in a Tecan M200 Fluorimeter using excitation at 530 nm and reading at 590 nm, every 5 min for 30 min. The velocity of the reaction and the remaining ATX activity were calculated at the linear phase of the reaction. Dose-response inhibition graphs were plotted with GraphPad Software.

PPARγ = molecular target: T2, PPARγ (Homo sapiens, UniProt P37231); assay: PPARγ Gal4 hybrid reporter gene assay; type: cell-based; conditions: Gal4-hybrid reporter, HEK293T cells
T2 construct: expressed in transfected cells; host or cells: HEK293T
T2 sequence (P37231 238-503 limits assumed): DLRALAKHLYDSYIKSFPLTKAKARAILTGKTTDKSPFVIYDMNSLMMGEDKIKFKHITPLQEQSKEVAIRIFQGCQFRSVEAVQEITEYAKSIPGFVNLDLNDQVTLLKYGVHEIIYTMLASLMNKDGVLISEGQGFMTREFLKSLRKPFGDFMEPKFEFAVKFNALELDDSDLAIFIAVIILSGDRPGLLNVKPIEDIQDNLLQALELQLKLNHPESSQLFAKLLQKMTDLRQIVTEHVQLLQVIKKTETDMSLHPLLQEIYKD
Description: All well-established assays were performed following straightforward methodology.[49] Plasmids pFA-CMV-hPPARα-LBD, pFA-CMV-hPPARγ-LBD and pFA-CMV-hPPARδ-LBD code for the hinge region and ligand binding domain of the canonical isoform of the respective nuclear receptor and were used to express the Gal4 hybrid receptors. pFR-Luc (Stratagene, La Jolla, CA, USA) and pRL-SV40 (Promega, Madison, WI, USA) were used as Gal4-responsive reporter and as internal control in the hybrid reporter gene assays, respectively. HEK293T cells were seeded in 96-well plates (3×10^4 cells/well). Before transfection, the medium was changed to Opti-MEM without supplements, and transient transfection with the plasmids pFR-Luc, pRL-SV40, and one pFA-CMV-NR-LBD clone was carried out using Lipofectamine LTX reagent (Invitrogen, Carlsbad, CA, USA) according to the manufacturer’s protocol. […] Normalisation of transfection efficiency and cell growth was performed by dividing firefly luminescence by Renilla luminescence and multiplying the result by 1000, yielding relative light units (RLU). Fold activation was obtained by dividing the mean RLU of the test compound by the mean RLU of the untreated control.

[2] = tested on: choline oxidase and horseradish peroxidase; assay: Interference with the 2nd and 3rd reaction of the Amplex Red assay; type: biochemical
Description: as §1
Figure S3. Kinetic analysis of ATX inhibition. Related to Figures 3 and 4
(B) Kinetics for the second (oxidation of choline catalysed by choline oxidase) and third reaction (the conversion of the
Amplex substrate to the fluorescent resorufin catalysed by horseradish peroxidase, HRP) of the Amplex Red Lyso-
phospholipase D assay for representative compounds (TGZ, 4, 5 and EL244). The first reaction includes the conversion of
LPC to LPA catalysed by ATX.
Kinetic graphs are indicative of three technical replicates. […]

[3] = Mouse metabolic clearance and half-life in vitro
in vitro = conditions: mouse
[4] = AMP membrane permeability; type: in vitro ADME; conditions: 10 μΜ
hERG = hERG (Homo sapiens, UniProt Q12809); assay: hERG inhibition; type: biochemical
[5] = Cytotoxicity in HepG2 hepatocytes; type: cell-based; conditions: human, HepG2 cells
ATX [6] = molecular target: T1, ATX; assay: Mode of ATX inhibition, Lineweaver-Burk plots (various LPC concentrations); type: biochemical
Description: To determine the mode of inhibition of ATX, various concentrations of TGZ, compound 5 and EL244 were tested against various LPC concentrations. Specifically, TGZ was tested against 6.25, 12.5, 25, 50 and 100 μM LPC, compound 5 was tested against 3.125, 6.25, 12.5, 25, 50 and 100 μM LPC, while EL244 was tested against 25, 50, 100 and 150 μM LPC. Lineweaver–Burk graphs depicting the reciprocal of velocity (1/V) against the reciprocal of substrate concentration (1/S) were plotted with GraphPad Software.

hERG, sequence (Q12809 whole entry): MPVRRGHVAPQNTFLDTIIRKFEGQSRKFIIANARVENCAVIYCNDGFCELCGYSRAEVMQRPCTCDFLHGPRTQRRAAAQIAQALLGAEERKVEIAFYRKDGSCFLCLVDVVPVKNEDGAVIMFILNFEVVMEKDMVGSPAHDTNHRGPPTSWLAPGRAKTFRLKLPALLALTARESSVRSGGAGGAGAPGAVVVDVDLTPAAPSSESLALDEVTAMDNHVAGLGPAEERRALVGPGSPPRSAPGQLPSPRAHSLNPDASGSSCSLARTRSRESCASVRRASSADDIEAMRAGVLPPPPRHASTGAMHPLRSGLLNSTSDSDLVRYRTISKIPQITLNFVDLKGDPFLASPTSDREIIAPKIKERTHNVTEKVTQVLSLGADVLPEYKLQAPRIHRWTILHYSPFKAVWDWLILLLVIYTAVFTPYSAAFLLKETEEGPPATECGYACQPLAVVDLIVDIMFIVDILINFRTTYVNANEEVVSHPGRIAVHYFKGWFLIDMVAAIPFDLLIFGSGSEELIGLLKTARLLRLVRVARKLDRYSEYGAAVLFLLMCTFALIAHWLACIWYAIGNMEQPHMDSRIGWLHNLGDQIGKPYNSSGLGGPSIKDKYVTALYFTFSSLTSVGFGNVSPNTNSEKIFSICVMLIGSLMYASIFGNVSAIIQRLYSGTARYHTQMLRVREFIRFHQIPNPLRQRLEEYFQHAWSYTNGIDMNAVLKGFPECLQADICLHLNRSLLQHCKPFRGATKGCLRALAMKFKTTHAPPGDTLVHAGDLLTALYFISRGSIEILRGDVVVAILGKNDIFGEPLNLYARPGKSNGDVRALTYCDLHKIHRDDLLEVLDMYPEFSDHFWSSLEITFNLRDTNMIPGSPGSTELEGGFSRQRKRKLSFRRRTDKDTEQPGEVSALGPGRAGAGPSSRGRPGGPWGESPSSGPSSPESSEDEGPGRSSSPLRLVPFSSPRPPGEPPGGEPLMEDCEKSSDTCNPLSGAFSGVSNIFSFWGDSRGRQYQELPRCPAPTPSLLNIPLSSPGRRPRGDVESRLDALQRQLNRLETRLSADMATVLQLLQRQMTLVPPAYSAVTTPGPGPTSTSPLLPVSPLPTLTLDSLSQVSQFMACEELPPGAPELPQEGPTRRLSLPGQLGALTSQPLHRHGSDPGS

For COc1cc(-c2ccc(N=Nc3ccc4c(S(=O)(=O)O)cc(S(=O)(=O)O)c(N)c4c3O)c(OC)c2)ccc1N=Nc1ccc2c(S(=O)(=O)O)cc(S(=O)(=O)O)c(N)c2c1O [CSB, Chicago Sky Blue 6B, reference compound], the pIC50 (ATX [1]) was 5.80, the “% inhibition of ATX” value (ATX [1]) was “fully inhibited ATX activity” and the “% inhibition of ATX” value (ATX [1]; listed as 425) was 99.21%.

For N#Cc1sc(NCCOc2ccc(/C=C3/SC(=O)NC3=O)cc2)nc1-c1ccc(F)cc1 [Compound 1, (E)-2-((2-(4-((2,4-dioxothiazolidin-5-ylidene)methyl)phenoxy)ethyl)amino)-4-(4-fluorophenyl)thiazole-5-carbonitrile], the pIC50 (ATX [1]) was 5.70 and the “ATX activity, fold lower than that of TGZ” value (ATX [1]) was 4 fold.

With O=C1NC(=O)/C(=C\c2ccc(OCCN3CCN(C(=O)OCc4cc(Cl)cc(Cl)c4)CC3)cc2)S1 [Compound 2, 3,5-Dichlorobenzyl (E)-4-(2-(4-((2,4-dioxothiazolidin-5-ylidene)methyl)phenoxy)ethyl)piperazine-1-carboxylate] the pIC50 (ATX [1]) was 5.70 and the “ATX activity, fold lower than that of TGZ” value (ATX [1]) was 4 fold.

For Cc1c(C)c2c(c(C)c1O)CCC(C)(COc1ccc(/C=C3/SC(=O)N(Cc4ccc(F)cc4)C3=O)cc1)O2 (stereo not drawn) [Compound 3, (E)-3-(4-fluorobenzyl)-5-(4-((6-hydroxy-2,5,7,8-tetramethylchroman-2-yl)methoxy)benzylidene)thiazolidine-2,4-dione], the pIC50 (ATX [1]) was 4.75.

In the case of N#Cc1sc(NCCOc2ccc(CC3SC(=O)NC3=O)cc2)nc1-c1ccc(F)cc1 (stereo not drawn) [Compound 4, 2-((2-(4-((2,4-dioxothiazolidin-5-yl)methyl)phenoxy)ethyl)amino)-4-(4-fluorophenyl)thiazole-5-carbonitrile], the pIC50 (ATX [1]) was 6.03, the pEC50 (PPARγ) was 6.00 and the “PPARγ fold activ. (max. activation)” value (PPARγ) was 5.6 ± 0.5 fold. For the same compound, the “Interference on the 2nd and 3rd steps of the Amplex Red assay” value [2] was “Minimal interference; also recorded: not involved at all in the second and third reaction”.

In the case of COC(=O)c1ccc2c(c1)NC(=O)/C2=C(\Nc1ccc(N(C)C(=O)CN2CCN(C)CC2)cc1)c1ccccc1 [Nintedanib, reference compound], the microsomal CLint at 0.1 μM [3] was 122 µL/min/mg, the half-life at 0.1 μM (in vitro) was 58 min and the AMP [4] was 7.8e-07 cm/s. The pIC50 (hERG) was 5.40 and the CC50 [5] was 4000 nM.

Compound O=C(CCN1CCN(C(=O)OCc2cc(Cl)cc(Cl)c2)CC1)c1ccc2[nH]c(=O)oc2c1 [PF-8380, reference compound] has a half-life at 0.1 μM [3] of less than 10 min, a microsomal CLint at 0.1 μM [3] of 766 µL/min/mg and a pIC50 (hERG) of 6.30. It also gave a CC50 [5] greater than 100000 nM.

For CCc1ccc(CCOc2ccc(CC3SC(=O)NC3=O)cc2)nc1 (stereo not drawn) [PGZ, pioglitazone, reference compound], the pIC50 (ATX [1]) was less than 4.00 and the “Inhibition of ATX enzymatic activity” value (ATX [1]) was “not to inhibit ATX enzymatic activity”.

For CN(CCOc1ccc(CC2SC(=O)NC2=O)cc1)c1ccccn1 (stereo not drawn) [RGZ, rosiglitazone, reference compound], the pIC50 (ATX [1]) was less than 4.00 and the “Inhibition of ATX enzymatic activity” value (ATX [1]) was “not to inhibit ATX enzymatic activity”.

In the case of Cc1c(C)c2c(c(C)c1O)CCC(C)(COc1ccc(CC3SC(=O)NC3=O)cc1)O2 (stereo not drawn) [TGZ, troglitazone, reference compound], the “Mode of ATX inhibition” value (ATX [6]) was “non-competitive”, the pIC50 (ATX [1]) was 6.28 and the “% inhibition of ATX” value (ATX [1]) was “fully inhibited ATX activity”. For the same compound, the “% inhibition of ATX” value (ATX [1]; listed as 1467) was 99.17% and the CC50 [5] was 34000 nM.
